Toxic doses and inconclusive results are not listed. The calls were made as follows: active = survival T/C of 150% or more; inactive = T/C below 125% in these data. Peptide text beside a SMILES is read from it. * marks the point of attachment. X13 = CC(C)CC(NN)C(=O)*
Test system: P388 leukemia ip, CD2F1 mice, survival T/C
Experiment: NCI In Vivo Anticancer Drug Screen. Data for tumor model P388 Leukemia (intraperitoneal) in CD2F1 (CDF1) mice
Details: endpoint: median survival time, higher = longer survival
Outline: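 Mice carrying the transplanted tumor received test compound or vehicle. Survival was recorded in each group, and the value is the treated-group measurement divided by that of the vehicle-treated control group.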

[1] = dose: 50.0 mg/kg/injection, schedule: Q01DX009 (ip), vehicle: Klucel (hydroxypropylcellulose) (HPC)
[2] = dose: 100.0 mg/kg/injection, schedule: Q01DX009 (ip), vehicle: Klucel (hydroxypropylcellulose) (HPC)
[3] = dose: 200.0 mg/kg/injection, schedule: Q01DX009 (ip), vehicle: Klucel (hydroxypropylcellulose) (HPC)
[4] = dose: 50.0 mg/kg/injection, schedule: Q01DX005 (ip), vehicle: Klucel (hydroxypropylcellulose) (HPC)
[5] = dose: 50.0 mg/kg/injection, schedule: Q01DX005 (ip), vehicle: saline with Tween-80
[6] = dose: 100.0 mg/kg/injection, schedule: Q01DX005 (ip), vehicle: saline with Tween-80
[7] = dose: 200.0 mg/kg/injection, schedule: Q01DX005 (ip), vehicle: saline with Tween-80

Measured: T/C

Cc1ccc2c(c1)sc1n[nH]c(=S)n12
inactive: [1] 100 % of control | [2] 100 % of control | [3] 100 % of control

CN1NC(c2ccccc2)=C(C#N)C(=O)CC1c1ccccc1 (centres undefined)
inactive: dose: 60.0 mg/kg/injection, schedule: Q01DX005 (ip), vehicle: saline with Tween-80 96 % of control | dose: 120.0 mg/kg/injection, schedule: Q01DX005 (ip), vehicle: saline with Tween-80 95 % of control | dose: 240.0 mg/kg/injection, schedule: Q01DX005 (ip), vehicle: saline with Tween-80 104 % of control

CCN(CC)c1ccc(NCS(=O)(=O)O)cc1
inactive: dose: 50.0 mg/kg/injection, schedule: Q04DX003 (ip), vehicle: saline sonified 95 % of control | dose: 100.0 mg/kg/injection, schedule: Q04DX003 (ip), vehicle: saline sonified 90 % of control | dose: 200.0 mg/kg/injection, schedule: Q04DX003 (ip), vehicle: saline sonified 100 % of control

CC(C)CC(NN)C(=O)NC(CCCN=C(N)N)C(=O)NC(CCCN=C(N)N)C(=O)NC(C)C(=O)NC(CO)C(=O)NC(C(=O)NC(C)C(=O)O)C(C)C (centres undefined) (X13-RRASVA-OH; configuration not given here)
inactive: dose: 4.5 mg/kg/injection, schedule: Q01DX009 (ip), vehicle: Klucel (hydroxypropylcellulose) (HPC) 101 % of control | dose: 9.0 mg/kg/injection, schedule: Q01DX009 (ip), vehicle: Klucel (hydroxypropylcellulose) (HPC) 94 % of control | dose: 18.0 mg/kg/injection, schedule: Q01DX009 (ip), vehicle: Klucel (hydroxypropylcellulose) (HPC) 98 % of control | dose: 36.0 mg/kg/injection, schedule: Q01DX009 (ip), vehicle: Klucel (hydroxypropylcellulose) (HPC) 96 % of control

COc1ccc(N(N=O)c2c(C)cc(C)cc2C)c(C(=O)O)c1
inactive: [4] 96 % of control | dose: 100.0 mg/kg/injection, schedule: Q01DX005 (ip), vehicle: Klucel (hydroxypropylcellulose) (HPC) 96 % of control | dose: 200.0 mg/kg/injection, schedule: Q01DX005 (ip), vehicle: Klucel (hydroxypropylcellulose) (HPC) 98 % of control

C=C1C(=O)OC2/C=C(/CO)CC/C=C(/C=O)CC(O)C12 (centres undefined)
inactive: dose: 1.89 mg/kg/injection, schedule: Q01DX005 (ip), vehicle: saline + Tween-80 + alcohol 101 % of control | dose: 3.75 mg/kg/injection, schedule: Q01DX005 (ip), vehicle: saline + Tween-80 + alcohol 100 % of control | dose: 7.5 mg/kg/injection, schedule: Q01DX005 (ip), vehicle: saline + Tween-80 + alcohol 101 % of control | dose: 15.0 mg/kg/injection, schedule: Q01DX005 (ip), vehicle: saline + Tween-80 + alcohol 99 % of control

CCCCCCCCCCCC1CCCC(C)N1 (centres undefined)
inactive: dose: 12.5 mg/kg/injection, schedule: Q01DX005 (ip), vehicle: Klucel (hydroxypropylcellulose) (HPC) 104 % of control | dose: 25.0 mg/kg/injection, schedule: Q01DX005 (ip), vehicle: Klucel (hydroxypropylcellulose) (HPC) 100 % of control | [4] 101 % of control

Cc1ccc(NCCCC2CCCN3CCCCC23)c2c(=O)c3ccccc3sc12 (centres undefined)
inactive: dose: 12.5 mg/kg/injection, schedule: Q01DX005 (ip), vehicle: distilled water + Tween-80 100 % of control | dose: 25.0 mg/kg/injection, schedule: Q01DX005 (ip), vehicle: distilled water + Tween-80 91 % of control | dose: 50.0 mg/kg/injection, schedule: Q01DX005 (ip), vehicle: distilled water + Tween-80 90 % of control

C=C(CCCC(C)(C)OCOCCOC)[Si](C)(C)C
inactive: [5] 101 % of control | [6] 100 % of control | [7] 102 % of control

CCCCCCCCCc1ccc(OCCOCCOCCOCCOCCOCCOCCOCCOCCOC(C)N2CCCC2=O)cc1 (centres undefined)
inactive: dose: 6.25 mg/kg/injection, schedule: Q01DX009 (ip), vehicle: saline with Tween-80 110 % of control | dose: 12.5 mg/kg/injection, schedule: Q01DX009 (ip), vehicle: saline with Tween-80 115 % of control | dose: 25.0 mg/kg/injection, schedule: Q01DX009 (ip), vehicle: saline with Tween-80 120 % of control

c1ccc(-c2[s+]ccc3ccccc23)cc1
inactive: [1] 115 % of control | [2] 118 % of control | [3] 117 % of control

COC(=O)C12C=CC(C(=O)OC)(CC1)n1c(=O)n(-c3ccccc3)c(=O)n12
inactive: [5] 107 % of control | [6] 100 % of control | [7] 100 % of control

Cc1c2cc[n+](C)cc2c(COC2OC(CO)C(O)C2O)c2c3ccccc3n(C)c12 (centres undefined)
inactive: dose: 60.0 mg/kg/injection, schedule: Q01DX005 (ip), vehicle: Klucel (hydroxypropylcellulose) (HPC) 123 % of control

— PubChem BioAssay AID330 (DTP/NCI, 2004)
